We go through six compounds from patent US9029332B2, “Cross-linked peptides and proteins, methods of making same, and uses thereof” (The Research Foundation for The State University of New York, priority 2010, dated 2015).

For one data set, the target named is GST-Bcl-xL (Homo sapiens, UniProt Q07817). In words: FP binding affinity of fluorescein-labeled peptides, Bcl-xL. The conditions noted are these: FP assay, fluorescein-labeled peptide; read-out: GST-Bcl-xL Kd.
In data set [1] the target is T1, GST-Mcl-1 (Homo sapiens, UniProt Q07820). As to the kind of experiment: FP binding affinity of fluorescein-labeled peptides, Mcl-1. The conditions noted are these: FP assay, fluorescein-labeled peptide.
T1 sequence (Q07820 whole entry): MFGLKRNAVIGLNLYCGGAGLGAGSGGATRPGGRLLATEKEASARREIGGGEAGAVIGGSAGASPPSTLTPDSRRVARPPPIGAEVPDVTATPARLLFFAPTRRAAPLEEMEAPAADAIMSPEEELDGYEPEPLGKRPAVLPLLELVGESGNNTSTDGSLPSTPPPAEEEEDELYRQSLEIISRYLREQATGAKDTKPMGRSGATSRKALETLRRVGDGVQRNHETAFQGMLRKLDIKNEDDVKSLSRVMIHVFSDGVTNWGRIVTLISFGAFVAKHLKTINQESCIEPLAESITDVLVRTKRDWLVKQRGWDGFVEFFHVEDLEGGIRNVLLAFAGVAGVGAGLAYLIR
The target in data set [2] is T2, trypsin (Sus scrofa, UniProt P00761). As to the kind of experiment: in vitro. The following applies: pig (porcine), pH 8.
T2 sequence (P00761 9-231): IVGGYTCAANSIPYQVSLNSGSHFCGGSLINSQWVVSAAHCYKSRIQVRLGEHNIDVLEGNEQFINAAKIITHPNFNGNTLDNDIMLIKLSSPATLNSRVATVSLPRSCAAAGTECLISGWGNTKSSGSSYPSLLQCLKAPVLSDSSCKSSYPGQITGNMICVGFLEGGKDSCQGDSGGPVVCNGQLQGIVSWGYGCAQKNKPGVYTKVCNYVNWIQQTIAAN
Procedure: (§1) Proteolytic stability of the linear and stapled Noxa peptides against trypsin (Type IX-S, 13,000-20,000 unit/mg, Sigma) and chymotrypsin (Type II, 40 unit/mg, Sigma). To a solution of 400 μL of 0.25 mM peptide in NH4HCO3 buffer, pH 8.0, was added 80 μL trypsin (5 μg/mL) or chymotrypsin (25 μg/mL), and the resulting solution was incubated at 37° C. At the indicated times, 40 μL of the solution was transferred to 40 μL trifluoroacetic acid to quench the reaction. The samples were analyzed by reverse-phase HPLC using benzophenone as an injection control.
In data set [3] the target is T3, chymotrypsin (Bos taurus, UniProt P00766). In words: in vitro. The conditions noted are these: cattle (bovine), pH 8.
Procedure: as §1
Data set [4] has as its target T4, full-length human MDM2 (GST-MDM2) (Homo sapiens, UniProt Q00987).
T4 construct: GST-MDM2 and GST-MDMX containing full-length human MDM2 and MDMX; made in house; host or cells: Escherichia coli
As to the kind of experiment: ELISA, inhibition of p53-MDM2 interaction. The conditions noted are these: relative to comparator linear peptide. It is filed as binding. An excerpt: FIG. 10. ELISA data of the cross-linked PDI analogs. The experiments were repeated three times and the resulting data were plotted with GraphPad Prism 5.0 to derive the average IC50 values along with standard deviations.
ELISA Assay. GST-MDM2 and GST-MDMX containing full-length human MDM2 and MDMX and His6-tagged human p53 were expressed in Escherichia coli and purified by glutathione agarose and Ni^2+-nitrilotriacetic acid beads, respectively, under non-denaturing conditions. Microtiter plates were coated with 2.5 μg/ml His6-p53 in PBS buffer for 16 hours. After washing with PBS containing 0.1% Tween-20 (PBST), the plates were blocked with PBST containing 5% nonfat dry milk (PBSTM) for 30 minutes. Peptides were dissolved in DMSO. GST-MDM2 and MDMX (5 μg/ml) were mixed with peptides in PBSMT containing 10% glycerol and 10 mM dithiolthreitol prior to their additions to the wells at the specified concentrations. The incubation was allowed to proceed for 1 hour at room temperature before the plates were washed with PBST. […] The plates were developed by incubation with TMB peroxidase substrate (KPL, Gaithersburg, Md.) and measured by absorbance at 450 nm. The data was analyzed with the Origin 6.0 software. […]
In general terms: In an ELISA, binding on a coated surface is turned into a signal by an enzyme label.

Data set [5] concerns the target T3, chymotrypsin. In words: Chymotrypsin proteolytic stability assay.
Procedure: as §1
Data set [6] addresses Mcl-1 (Homo sapiens, UniProt Q07820). As to the kind of experiment: ELISA of cross-linked Noxa peptides. It is filed as binding.
Data set [7] concerns the target T1, GST-Mcl-1. As to the kind of experiment: Competitive fluorescence polarization assay. It is filed as binding. The conditions noted are these: Noxa peptides, three repeats ± SD; read-out: FP, IC50. As to the method:
Competitive Florescence Polarization Assay. The binding affinity of the Noxa peptides toward GST-Mcl-1 was determined in a competitive fluorescence polarization assay with the fluorescein-labeled Bak or Bim. Briefly, fluorescein-labeled Bak was incubated with GST-Mcl-1 in a binding buffer (PBS, 0.005% Tween-20, pH7.4) at room temperature in a 96-well microtiter plate. […] The reading was repeated at various time points to ensure that the competition has reached equilibrium.
(In general: Polarisation of emitted light reports the rotation of a fluorescent probe.)

Data set [8] in a line: Circular dichroism, percent helicity. It is filed as physicochemical. The conditions noted are these: compared to the linear NoxaBH3 peptide, 50 μM in 20% ACN/H2O. Here is the method: FIG. 12. […] The peptides were dissolved in 20% ACN/H2O for a final concentration of 50 μM.
Circular Dichroism Study. […] The spectra were recorded in the wavelength range of 190-250 nm and averaged over 3 scans with a resolution of 0.5 nm, a bandwidth of 1.0 nm and a response time of 4 s. The sensitivity and the speed of the spectrometer were set to 100 mdeg and 50 nm/min, respectively. All peptides were dissolved in 20% acetonitrile/H2O to reach final concentration of 50 μM.
(In general: CD spectra are sensitive to the conformation of chiral molecules.)

The nature of the next data set: Water solubility. It is filed as physicochemical.
Data set [9] has as its target T2, trypsin. As to the kind of experiment: Trypsin-mediated proteolytic stability assay.
Procedure: as §1
A further data set concerns Bfl-1/A1. The following applies: background literature; read-out: IC50 against Bfl-1/A1; cited from earlier work.
A further data set deals with Bcl-xL (Homo sapiens, UniProt Q07817). The following applies: background literature; read-out: IC50 against Bcl-xL; cited from earlier work.
Sequence of Bcl-xL (Q07817 whole entry, species assumed): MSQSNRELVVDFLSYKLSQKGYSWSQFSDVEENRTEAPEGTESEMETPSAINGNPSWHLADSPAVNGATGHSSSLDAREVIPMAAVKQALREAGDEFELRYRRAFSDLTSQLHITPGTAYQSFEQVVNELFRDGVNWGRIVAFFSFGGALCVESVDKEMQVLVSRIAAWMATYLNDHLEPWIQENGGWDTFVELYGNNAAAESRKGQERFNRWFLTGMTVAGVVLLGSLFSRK
Another data set concerns the target Bcl-2 (Homo sapiens, UniProt P10415). The conditions noted are these: background literature; read-out: IC50 against Bcl-2; cited from earlier work.
A further data set addresses T5, Bcl-w (Homo sapiens, UniProt Q92843).
T5 sequence (Q92843 1-193): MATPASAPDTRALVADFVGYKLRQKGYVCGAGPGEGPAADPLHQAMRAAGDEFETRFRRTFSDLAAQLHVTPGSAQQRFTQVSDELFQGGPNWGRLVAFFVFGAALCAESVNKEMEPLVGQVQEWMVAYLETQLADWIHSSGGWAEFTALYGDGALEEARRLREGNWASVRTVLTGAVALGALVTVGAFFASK
The following applies: background literature; read-out: IC50 against Bcl-w; cited from earlier work.

Data set [10] addresses Mcl-1 (Mus musculus, UniProt P97287). The conditions noted are these: background literature; read-out: IC50 against Mcl-1; cited from earlier work.

Square brackets hold non-standard residues; d marks the D form. Peptide text beside a SMILES is read from it.

Sequence of GST-Bcl-xL (Q07817 whole entry): as the sequence (Q07817 whole entry, species assumed) above
Sequence of Mcl-1 (Mus musculus, UniProt P97287) (P97287 152-308 limits assumed): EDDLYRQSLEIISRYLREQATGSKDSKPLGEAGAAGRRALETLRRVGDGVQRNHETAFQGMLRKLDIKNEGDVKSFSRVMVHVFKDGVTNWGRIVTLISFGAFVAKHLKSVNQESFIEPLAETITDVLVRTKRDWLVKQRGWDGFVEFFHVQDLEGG
Sequence of Mcl-1 (Homo sapiens, UniProt Q07820) (Q07820 whole entry, species assumed): as the sequence (Q07820 whole entry) above
Sequence of Bcl-2 (P10415 whole entry, species assumed): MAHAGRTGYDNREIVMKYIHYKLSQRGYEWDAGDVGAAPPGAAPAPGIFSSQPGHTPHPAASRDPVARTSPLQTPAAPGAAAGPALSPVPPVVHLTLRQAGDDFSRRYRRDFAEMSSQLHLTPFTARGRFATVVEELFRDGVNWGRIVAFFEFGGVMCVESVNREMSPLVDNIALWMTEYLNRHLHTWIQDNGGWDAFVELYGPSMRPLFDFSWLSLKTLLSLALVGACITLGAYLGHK
T4 sequence (Q00987 whole entry): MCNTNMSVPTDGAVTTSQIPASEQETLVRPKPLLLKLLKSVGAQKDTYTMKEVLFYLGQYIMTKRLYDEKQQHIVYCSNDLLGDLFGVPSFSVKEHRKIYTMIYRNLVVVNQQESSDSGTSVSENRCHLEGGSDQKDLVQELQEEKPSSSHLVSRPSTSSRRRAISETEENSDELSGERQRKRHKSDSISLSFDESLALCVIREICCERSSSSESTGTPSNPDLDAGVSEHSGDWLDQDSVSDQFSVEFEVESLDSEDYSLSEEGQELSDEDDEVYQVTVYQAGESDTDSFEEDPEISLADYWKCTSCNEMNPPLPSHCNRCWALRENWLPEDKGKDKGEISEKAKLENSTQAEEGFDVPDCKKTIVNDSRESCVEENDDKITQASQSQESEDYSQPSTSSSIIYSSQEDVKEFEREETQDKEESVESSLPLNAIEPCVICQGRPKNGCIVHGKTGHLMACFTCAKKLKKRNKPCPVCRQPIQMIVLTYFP

As to `CC[C@H](C)[C@@H]1NC(=O)[C@H](CCCNC(=N)N)NC(=O)[C@H](CCCNC(=N)N)NC(=O)[C@H](CC(C)C)NC(=O)[C@@H](NC(=O)[C@H](C)NC(=O)[C@H](C)NC(=O)CCCCCNC(=S)Nc2ccc3c(c2)C(=O)OC32c3ccc(O)cc3Oc3cc(O)ccc32)CSCc2ccc(cc2)-c2ccc(cc2)CSC[C@@H](C(=O)N[C@H](C(=O)N[C@@H](CC(N)=O)C(=O)N[C@@H](CC(C)C)C(=O)N[C@@H](CCCNC(=N)N)C(=O)N[C@@H](CCC(N)=O)C(=O)N[C@@H](CCCCN)C(=O)N[C@@H](CC(C)C)C(=O)N[C@@H](CC(C)C)C(=O)N[C@@H](CC(N)=O)C(N)=O)C(C)C)NC(=O)[C@H](CC(=O)O)NC(=O)CNC1=O` [Fl-5a], the Kd (commonly the constant that tells how readily two partners part at equilibrium) is greater than 2 µM at GST-Bcl-xL and 0.0008 ± 0.0001 µM on GST-Mcl-1 [1].

For `CC[C@H](C)[C@@H]1NC(=O)[C@H](CCCNC(=N)N)NC(=O)[C@H](CCCNC(=N)N)NC(=O)[C@H](CC(C)C)NC(=O)[C@H](NC(=O)[C@H](C)NC(=O)[C@H](C)NC(=O)CCCCCNC(=S)Nc2ccc3c(c2)C(=O)OC32c3ccc(O)cc3Oc3cc(O)ccc32)CSCc2ccc(cc2)-c2ccc(cc2)CSC[C@@H](C(=O)N[C@H](C(=O)N[C@@H](CC(N)=O)C(=O)N[C@@H](CC(C)C)C(=O)N[C@@H](CCCNC(=N)N)C(=O)N[C@@H](CCC(N)=O)C(=O)N[C@@H](CCCCN)C(=O)N[C@@H](CC(C)C)C(=O)N[C@@H](CC(C)C)C(=O)N[C@@H](CC(N)=O)C(N)=O)C(C)C)NC(=O)[C@H](CC(=O)O)NC(=O)CNC1=O` [Fl-6a], the Kd was greater than 2 µM on GST-Bcl-xL and 0.0007 ± 0.0001 µM on GST-Mcl-1 [1].

As to `CC[C@H](C)[C@H](NC(=O)[C@H](CCCNC(=N)N)NC(=O)[C@H](CCCNC(=N)N)NC(=O)[C@H](CC(C)C)NC(=O)[C@H](CCC(N)=O)NC(=O)[C@H](C)NC(=O)[C@H](C)NC(C)=O)C(=O)NCC(=O)N[C@@H](CC(=O)O)C(=O)N[C@@H](CCCCN)C(=O)N[C@H](C(=O)N[C@@H](CC(N)=O)C(=O)N[C@@H](CC(C)C)C(=O)N[C@@H](CCCNC(=N)N)C(=O)N[C@@H](CCC(N)=O)C(=O)N[C@@H](CCCCN)C(=O)N[C@@H](CC(C)C)C(=O)N[C@@H](CC(C)C)C(=O)N[C@@H](CC(N)=O)C(N)=O)C(C)C` [NoxaB^75-93-C75A], the half-life (usually the time in which the quantity being followed falls by half) at 0.208 mM came out at 1.8 min at trypsin [2] and 3.3 min at chymotrypsin [3].

For `CC(=O)N[C@@H](CC(C)C)C(=O)N[C@H](C(=O)N[C@@H](Cc1ccccc1)C(=O)N[C@H](CS)C(=O)N[C@@H](Cc1c[nH]cn1)C(=O)N[C@@H](Cc1ccc(O)cc1)C(=O)N[C@@H](Cc1c[nH]c2ccccc12)C(=O)N[C@@H](C)C(=O)N[C@@H](CCC(N)=O)C(=O)N[C@@H](CC(C)C)C(=O)N[C@@H](CS)C(=O)N[C@@H](CO)C(N)=O)[C@@H](C)O` [Peptide 3] (Ac-LTF[dC]HYWAQLCS-NH2; C-terminus assumed), the “increase in MDM2 activity” value in data set [4] is given as “more than 3 fold”.

For the compound `CC[C@H](C)[C@@H]1NC(=O)[C@H](CCCNC(=N)N)NC(=O)[C@H](CCCNC(=N)N)NC(=O)[C@H](CC(C)C)NC(=O)[C@H](NC(=O)[C@H](C)NC(=O)[C@H](C)NC(C)=O)CSCc2ccc(cn2)-c2ccc(nc2)CSC[C@@H](C(=O)N[C@H](C(=O)N[C@@H](CC(N)=O)C(=O)N[C@@H](CC(C)C)C(=O)N[C@@H](CCCNC(=N)N)C(=O)N[C@@H](CCC(N)=O)C(=O)N[C@@H](CCCCN)C(=O)N[C@@H](CC(C)C)C(=O)N[C@@H](CC(C)C)C(=O)N[C@@H](CC(N)=O)C(N)=O)C(C)C)NC(=O)[C@H](CC(=O)O)NC(=O)CNC1=O` [Peptide 6b], the “times more stable against chymotrypsin than parent linear peptide” value on chymotrypsin [5] is greater than 16 times. Besides, the half-life at 0.208 mM worked out at 54 min at chymotrypsin [5] (cattle (bovine), chymotrypsin (Type II, Sigma) in NH4HCO3 buffer, pH 8) and 11.5 min at trypsin [9] (pig (porcine), trypsin (Type IX-S, Sigma) in NH4HCO3 buffer, pH 8). Besides, the values for the IC50 against Mcl-1 [6] and on GST-Mcl-1 [7] were 0.14 µM and 0.14 ± 0.043 µM, respectively. In data set [8], the “enhancement in percent helicity” value was “roughly 2 fold”. Also, the water solubility entry in “Water solubility” is listed as “better water solubility”. On trypsin [9], the “times more stable against trypsin than parent linear peptide” value is given as greater than 6 times.

With “NoxaBH3-(18-43): human Noxa BH3 peptide, residues 18-43 (PAELEVECATQLRRFGDKLNFRQKLL; UniProt Q13794 18-43, looked up, fragment)”, the IC50 was 0.18 µM with Bfl-1/A1; greater than 100 µM with Bcl-xL; greater than 100 µM in the data set with Bcl-2; greater than 100 µM in the data set with Bcl-w; 0.024 µM with Mcl-1 [10].
